Assay results: article PMC10058949, “Effect of N-Terminal Peptide Modifications on In Vitro and In Vivo Properties of ^177Lu-Labeled Peptide Analogs Targeting CCK2R” (Pharmaceutics, 2023)

Key:
[1] = Octanol/PBS distribution coefficient (logD7.4); type: physicochemical; conditions: pH 7.4
Procedure: (§1) The stability studies with the ^177Lu-labeled peptide analogs were carried out at a concentration of 0.5 nmol peptide/mL in fresh human serum (n = 2) for up to 24 h. A mixture of 0.05 nmol/mL of the radiolabeled peptides in PBS and octanol (1/1, v/v) was used to evaluate the octanol/PBS distribution coefficient (logD7.4; n = 8). To determine the protein binding in human serum by Sephadex G-50 size-exclusion chromatography (GE Healthcare Illustra, Little Chalfont, UK), a 25 µL serum sample was used for different time points after incubation. All steps were performed according to previously published protocols.

human serum proteins = assay: Protein binding in human serum by Sephadex G-50 size-exclusion chromatography; type: in vitro ADME
Procedure: as §1

Q: For CCCC[C@@H](C(=O)N[C@@H](CC(=O)O)C(=O)N[C@@H](Cc1cccc2ccccc12)C(N)=O)N(C)C(=O)[C@H](Cc1c[nH]c2ccccc12)NC(=O)CCNC(=O)CC(O)CNC(=O)CC(O)CNC(=O)CN1CCN(CC(=O)O)CCN(CC(=O)O)CCN(CC(=O)O)CC1 (stereo partly drawn) [[^177Lu]Lu-2, metal not drawn], which logD [1] is on record?
A: -2.18 ± 0.38

Q: And the “change in binding to human serum proteins compared to [177Lu]Lu-DOTA-MGS5” value (human serum proteins)?
A: 2-fold decrease

Q: And the “decrease in protein binding compared to [177Lu]Lu-DOTA-MGS5” value (human serum proteins; human, serum)?
A: ~ 50%
